Reference: PubChem BioAssay (NCI)
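Exposure lasted 48 hours, with cells grown in 96-well plates and compounds tested at five concentrations. At the GI50, growth is halved. TGI is the concentration that stops growth completely.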

Legend:
Test in all cases: NCI tumour cell line growth inhibition, 48 h
COLO 205 colon = system: COLO 205 colon
EKVX NSCLC = system: EKVX NSCLC
HCT-116 colon = system: HCT-116 colon
M14 melanoma = system: M14 melanoma
MALME-3M melanoma = system: MALME-3M melanoma
OVCAR-4 ovarian = system: OVCAR-4 ovarian
SF-539 CNS = system: SF-539 CNS
SK-MEL-2 melanoma = system: SK-MEL-2 melanoma
SW-620 colon = system: SW-620 colon
UACC-257 melanoma = system: UACC-257 melanoma

Work on `COc1cc(NCCCCCCCNC(C)C)c2nccc(C)c2c1` yielded a GI50 (COLO 205 colon) of 2.34 µM, a TGI (COLO 205 colon) of 6.54 µM and a GI50 (EKVX NSCLC) of 10.9 µM. For the same compound, the TGI (EKVX NSCLC) was 26.5 µM, the GI50 (HCT-116 colon) was 6.95 µM and the TGI (HCT-116 colon) was 19.9 µM. The GI50 (M14 melanoma) was 7.38 µM, the TGI (M14 melanoma) was 20.7 µM and the GI50 (MALME-3M melanoma) was 17.3 µM. It also gave a TGI (MALME-3M melanoma) of 34.8 µM, a GI50 (OVCAR-4 ovarian) of 4.08 µM and a TGI (OVCAR-4 ovarian) of 15.6 µM. It also gave a GI50 (SF-539 CNS) of 13.7 µM, a TGI (SF-539 CNS) of 26.8 µM and a GI50 (SK-MEL-2 melanoma) of 20 µM. It also gave a TGI (SK-MEL-2 melanoma) of 38.3 µM, a GI50 (SW-620 colon) of 12.6 µM and a TGI (SW-620 colon) of 28.6 µM. The GI50 (UACC-257 melanoma) was 18.2 µM and the TGI (UACC-257 melanoma) was 34.2 µM.

Compound `O=C1OCC2=C1C(c1ccccc1)c1cc3c(cc1N2CCO)OCO3` (stereo not given) has a GI50 (COLO 205 colon) of 2.71 µM, a TGI (COLO 205 colon) of 17.1 µM and a GI50 (EKVX NSCLC) of 14 µM. For the same compound, the TGI (EKVX NSCLC) was greater than 50 µM, the GI50 (HCT-116 colon) was 1.79 µM and the TGI (HCT-116 colon) was greater than 50 µM. For the same compound, the GI50 (M14 melanoma) was 1.92 µM, the TGI (M14 melanoma) was 23.3 µM and the GI50 (MALME-3M melanoma) was greater than 50 µM. It also gave a TGI (MALME-3M melanoma) greater than 50 µM, a GI50 (OVCAR-4 ovarian) of 4.38 µM and a TGI (OVCAR-4 ovarian) greater than 50 µM. For the same compound, the GI50 (SF-539 CNS) was 2.41 µM, the TGI (SF-539 CNS) was greater than 50 µM and the GI50 (SK-MEL-2 melanoma) was 2.72 µM. The TGI (SK-MEL-2 melanoma) was greater than 50 µM, the GI50 (SW-620 colon) was 2.18 µM and the TGI (SW-620 colon) was greater than 50 µM. The GI50 (UACC-257 melanoma) was greater than 50 µM and the TGI (UACC-257 melanoma) was greater than 50 µM.

Compound `Cc1c2ccccc2cc2ccc3oc([N+](=O)[O-])cc3c12` has a TGI (COLO 205 colon) greater than 100 µM, a TGI (EKVX NSCLC) greater than 100 µM and a TGI (HCT-116 colon) greater than 100 µM. The TGI (M14 melanoma) was greater than 100 µM, the TGI (MALME-3M melanoma) was greater than 100 µM and the TGI (OVCAR-4 ovarian) was greater than 100 µM. The TGI (SF-539 CNS) was greater than 100 µM, the TGI (SK-MEL-2 melanoma) was greater than 100 µM and the TGI (SW-620 colon) was greater than 100 µM. For the same compound, the TGI (UACC-257 melanoma) was greater than 100 µM.

`NC(=S)NN/C=C(\C=Nc1ccccc1)[N+](=O)[O-]` showed a TGI (COLO 205 colon) greater than 100 µM, a TGI (EKVX NSCLC) greater than 100 µM and a TGI (HCT-116 colon) greater than 100 µM. For the same compound, the TGI (M14 melanoma) was greater than 100 µM, the TGI (MALME-3M melanoma) was greater than 100 µM and the TGI (OVCAR-4 ovarian) was greater than 100 µM. It also gave a TGI (SF-539 CNS) greater than 100 µM, a TGI (SK-MEL-2 melanoma) greater than 100 µM and a TGI (SW-620 colon) greater than 100 µM. The TGI (UACC-257 melanoma) was greater than 100 µM.

In the case of `O=C(O)c1ccccc1/C=N/N=C1c2ccccc2-c2ccccc21`, the TGI (COLO 205 colon) is reported as greater than 100 µM, the TGI (EKVX NSCLC) is reported as greater than 100 µM and the TGI (HCT-116 colon) is reported as greater than 100 µM. It also gave a TGI (M14 melanoma) greater than 100 µM, a TGI (MALME-3M melanoma) greater than 100 µM and a TGI (OVCAR-4 ovarian) greater than 100 µM. The TGI (SF-539 CNS) was greater than 100 µM, the TGI (SK-MEL-2 melanoma) was greater than 100 µM and the TGI (SW-620 colon) was greater than 100 µM. For the same compound, the TGI (UACC-257 melanoma) was greater than 100 µM.

In the case of `CSC1=Nc2ccccc2N=C(c2ccc(Cl)cc2)C1`, the TGI (COLO 205 colon) is reported as greater than 100 µM, the TGI (EKVX NSCLC) is reported as greater than 100 µM and the TGI (HCT-116 colon) is reported as greater than 100 µM. It also gave a TGI (M14 melanoma) greater than 100 µM, a TGI (MALME-3M melanoma) of 92.6 µM and a TGI (OVCAR-4 ovarian) greater than 100 µM. It also gave a TGI (SF-539 CNS) greater than 100 µM, a TGI (SK-MEL-2 melanoma) of 51.4 µM and a TGI (SW-620 colon) greater than 100 µM. It also gave a TGI (UACC-257 melanoma) of 84.9 µM.

`CC(=O)c1ccc(O)c(CN(C2CCCCC2)C2CCCCC2)c1O` was tested, and the TGI (COLO 205 colon) was greater than 100 µM, the TGI (EKVX NSCLC) was greater than 100 µM and the TGI (HCT-116 colon) was greater than 100 µM. It also gave a TGI (M14 melanoma) greater than 100 µM, a TGI (MALME-3M melanoma) greater than 100 µM and a TGI (OVCAR-4 ovarian) greater than 100 µM. For the same compound, the TGI (SF-539 CNS) was greater than 100 µM, the TGI (SK-MEL-2 melanoma) was greater than 100 µM and the TGI (SW-620 colon) was greater than 100 µM. It also gave a TGI (UACC-257 melanoma) greater than 100 µM.

For `COC(=O)C1(O)CC(=O)CCC1c1ccc(OC)cc1` (stereo not given), the TGI (COLO 205 colon) was greater than 100 µM, the TGI (EKVX NSCLC) was greater than 100 µM and the TGI (HCT-116 colon) was greater than 100 µM. For the same compound, the TGI (M14 melanoma) was greater than 100 µM, the TGI (MALME-3M melanoma) was greater than 100 µM and the TGI (OVCAR-4 ovarian) was greater than 100 µM. The TGI (SF-539 CNS) was greater than 100 µM, the TGI (SK-MEL-2 melanoma) was greater than 100 µM and the TGI (SW-620 colon) was greater than 100 µM. It also gave a TGI (UACC-257 melanoma) greater than 100 µM.

In the case of `CC(C)(C)C(=O)[CH-]C(=O)C(C)(C)C.CC(C)(C)C(=O)[CH-]C(=O)C(C)(C)C.CN(C)c1ccc([O-])cc1.CN(C)c1ccc([O-])cc1.[Ti+4]`, the GI50 (COLO 205 colon) is reported as greater than 100 µM, the TGI (COLO 205 colon) is reported as greater than 100 µM and the GI50 (EKVX NSCLC) is reported as greater than 100 µM. It also gave a TGI (EKVX NSCLC) greater than 100 µM, a GI50 (HCT-116 colon) greater than 100 µM and a TGI (HCT-116 colon) greater than 100 µM. The GI50 (M14 melanoma) was 60.8 µM, the TGI (M14 melanoma) was greater than 100 µM and the GI50 (MALME-3M melanoma) was greater than 100 µM. It also gave a TGI (MALME-3M melanoma) greater than 100 µM, a GI50 (OVCAR-4 ovarian) greater than 100 µM and a TGI (OVCAR-4 ovarian) greater than 100 µM. For the same compound, the GI50 (SF-539 CNS) was 55.8 µM, the TGI (SF-539 CNS) was greater than 100 µM and the GI50 (SK-MEL-2 melanoma) was greater than 100 µM. The TGI (SK-MEL-2 melanoma) was greater than 100 µM, the GI50 (SW-620 colon) was greater than 100 µM and the TGI (SW-620 colon) was greater than 100 µM. The GI50 (UACC-257 melanoma) was greater than 100 µM and the TGI (UACC-257 melanoma) was greater than 100 µM.
